Source: US20240018145A1, “[…]-DEPENDENT EN[…] TREATING OR […]” (priority 2020, published 2024)

Test system: FLU A (PR/8/34)
Test: Flu A Neuraminidase Antiviral Assay
Assay type: cell-based

CN1C(=O)c2c(O)c(=O)ccn2N2C1CCCC2(C)c1ccc(F)cc1 (single isomer, unassigned) [Compound 26B, 1-(4-fluorophenyl)-7-hydroxy-1,5-dimethyl-1,2,3,4,4a,5-hexahydrodipyrido[1,2-b:2′,1′-f][1,2,4]triazine-6,8-dione]
EC50: 1800 nM

CN1C(=O)c2c(O)c(=O)ccn2N2C1CCCC2(C)c1ncccc1F (single isomer, unassigned) [Compound 27A, 1-(3-fluoropyridin-2-yl)-7-hydroxy-1,5-dimethyl-1,2,3,4,4a,5-hexahydrodipyrido[1,2-b:2′,1′-f][1,2,4]triazine-6,8-dione]
EC50: 859 nM

CN1C(=O)c2c(O)c(=O)ccn2N2C1CCCC2(C)c1ncccc1F (single isomer, unassigned) [Compound 27B, 1-(3-fluoropyridin-2-yl)-7-hydroxy-1,5-dimethyl-1,2,3,4,4a,5-hexahydrodipyrido[1,2-b:2′,1′-f][1,2,4]triazine-6,8-dione]
EC50: 17.1 nM

CN1C(=O)c2c(O)c(=O)ccn2N2C1CCCC2(C)c1cccc(Cl)c1 (single isomer, unassigned) [Compound 28A, 1-(3-chlorophenyl)-7-hydroxy-1,5-dimethyl-1,2,3,4,4a,5-hexahydrodipyrido[1,2-b:2′,1′-f][1,2,4]triazine-6,8-dione]
EC50: 5.2 nM

CN1C(=O)c2c(O)c(=O)ccn2N2C1CCCC2(C)c1cccc(Cl)c1 (single isomer, unassigned) [Compound 28B, 1-(3-chlorophenyl)-7-hydroxy-1,5-dimethyl-1,2,3,4,4a,5-hexahydrodipyrido[1,2-b:2′,1′-f][1,2,4]triazine-6,8-dione]
EC50: 278 nM

CC1CCC2N(C)C(=O)c3c(O)c(=O)ccn3N2C1(C)c1ccccc1 (single isomer, unassigned) [Compound 29A, 7-hydroxy-1,2,5-trimethyl-1-phenyl-1,2,3,4,4a,5-hexahydrodipyrido[1,2-b:2′,1′-f][1,2,4]triazine-6,8-dione]
EC50: 1860 nM

CC1CCC2N(C)C(=O)c3c(O)c(=O)ccn3N2C1(C)c1ccccc1 (single isomer, unassigned) [Compound 29B, 7-hydroxy-1,2,5-trimethyl-1-phenyl-1,2,3,4,4a,5-hexahydrodipyrido[1,2-b:2′,1′-f][1,2,4]triazine-6,8-dione]
EC50: 286 nM

CN1C(=O)c2c(O)c(=O)ccn2N2C1CCCC2(C)c1ccccn1 (single isomer, unassigned) [Compound 30A, 7-hydroxy-1,5-dimethyl-1-(pyridin-2-yl)-1,2,3,4,4a,5-hexahydrodipyrido[1,2-b:2′,1′-f][1,2,4]triazine-6,8-dione]
EC50: 16.6 nM

CN1C(=O)c2c(O)c(=O)ccn2N2C1CCCC2(C)c1ccccn1 (single isomer, unassigned) [Compound 30B, 7-hydroxy-1,5-dimethyl-1-(pyridin-2-yl)-1,2,3,4,4a,5-hexahydrodipyrido[1,2-b:2′,1′-f][1,2,4]triazine-6,8-dione]
EC50: 5300 nM

CN1C(=O)c2c(O)c(=O)ccn2N2C1CCCC2(C)c1ccncc1 (single isomer, unassigned) [Compound 31A, 7-hydroxy-1,5-dimethyl-1-(pyridin-4-yl)-1,2,3,4,4a,5-hexahydrodipyrido[1,2-b:2′,1′-f][1,2,4]triazine-6,8-dione]
EC50: 283 nM

CN1C(=O)c2c(O)c(=O)ccn2N2C1CCCC2(C)c1ccncc1 (single isomer, unassigned) [Compound 31B, 7-hydroxy-1,5-dimethyl-1-(pyridin-4-yl)-1,2,3,4,4a,5-hexahydrodipyrido[1,2-b:2′,1′-f][1,2,4]triazine-6,8-dione]
EC50: > 8100 nM

CN1C(=O)c2c(O)c(=O)ccn2N2C1CCCC21CCCc2ccccc21 (single isomer, unassigned) [Compound 32A, 7-hydroxy-5-methyl-3,3′,4,4a,4′,5-hexahydro-2H,2′H-spiro[dipyrido[1,2-b:2′,1′-f][1,2,4]triazine-1,1′-naphthalene]-6,8-dione]
EC50: > 8100 nM

CN1C(=O)c2c(O)c(=O)ccn2N2C1CCCC21CCCc2ccccc21 (single isomer, unassigned) [Compound 32B, 7-hydroxy-5-methyl-3,3′,4,4a,4′,5-hexahydro-2H,2′H-spiro[dipyrido[1,2-b:2′,1′-f][1,2,4]triazine-1,1′-naphthalene]-6,8-dione]
EC50: 156 nM

CCCC1CCC2N(C)C(=O)c3c(O)c(=O)ccn3N2C1(C)c1ccccc1 (single isomer, unassigned) [Compound 33A, 7-hydroxy-1,5-dimethyl-1-phenyl-2-propyl-1,2,3,4,4a,5-hexahydrodipyrido[1,2-b:2′,1′-f][1,2,4]triazine-6,8-dione]
EC50: 49.5 nM

CCCC1CCC2N(C)C(=O)c3c(O)c(=O)ccn3N2C1(C)c1ccccc1 (single isomer, unassigned) [Compound 33B, 7-hydroxy-1,5-dimethyl-1-phenyl-2-propyl-1,2,3,4,4a,5-hexahydrodipyrido[1,2-b:2′,1′-f][1,2,4]triazine-6,8-dione]
EC50: 1880 nM

CCCC1CCC2N(C)C(=O)c3c(O)c(=O)ccn3N2C1(C)c1ccccc1 (single isomer, unassigned) [Compound 33C, 7-hydroxy-1,5-dimethyl-1-phenyl-2-propyl-1,2,3,4,4a,5-hexahydrodipyrido[1,2-b:2′,1′-f][1,2,4]triazine-6,8-dione]
EC50: 1320 nM

CCCC1CCC2N(C)C(=O)c3c(O)c(=O)ccn3N2C1(C)c1ccccc1 (single isomer, unassigned) [Compound 33D, 7-hydroxy-1,5-dimethyl-1-phenyl-2-propyl-1,2,3,4,4a,5-hexahydrodipyrido[1,2-b:2′,1′-f][1,2,4]triazine-6,8-dione]
EC50: 2.3 nM

CC1(c2ccccc2)CCCC2N(CC(F)(F)F)C(=O)c3c(O)c(=O)ccn3N21 (single isomer, unassigned) [Compound 34A, 7-hydroxy-1-methyl-1-phenyl-5-(2,2,2-trifluoroethyl)-1,2,3,4,4a,5-hexahydrodipyrido[1,2-b:2′,1′-f][1,2,4]triazine-6,8-dione]
EC50: 3090 nM

CC1(c2ccccc2)CCCC2N(CC(F)(F)F)C(=O)c3c(O)c(=O)ccn3N21 (single isomer, unassigned) [Compound 34B, 7-hydroxy-1-methyl-1-phenyl-5-(2,2,2-trifluoroethyl)-1,2,3,4,4a,5-hexahydrodipyrido[1,2-b:2′,1′-f][1,2,4]triazine-6,8-dione]
EC50: 4.9 nM

CN1C(=O)c2c(O)c(=O)ccn2N2C1CCC(C)(C)C2(C)c1ccccc1 (single isomer, unassigned) [Compound 35A, 7-hydroxy-1,2,2,5-tetramethyl-1-phenyl-1,2,3,4,4a,5-hexahydrodipyrido[1,2-b:2′,1′-f][1,2,4]triazine-6,8-dione]
EC50: 138 nM

CN1C(=O)c2c(O)c(=O)ccn2N2C1CCC(C)(C)C2(C)c1ccccc1 (single isomer, unassigned) [Compound 35B, 7-hydroxy-1,2,2,5-tetramethyl-1-phenyl-1,2,3,4,4a,5-hexahydrodipyrido[1,2-b:2′,1′-f][1,2,4]triazine-6,8-dione]
EC50: > 8100 nM

CCN1C(=O)c2c(O)c(=O)ccn2N2C1CCCC2(C)c1ccccc1 (single isomer, unassigned) [Compound 36A, 5-ethyl-7-hydroxy-1-methyl-1-phenyl-1,2,3,4,4a,5-hexahydrodipyrido[1,2-b:2′,1′-f][1,2,4]triazine-6,8-dione]
EC50: 3.2 nM

CCN1C(=O)c2c(O)c(=O)ccn2N2C1CCCC2(C)c1ccccc1 (single isomer, unassigned) [Compound 36B, 5-ethyl-7-hydroxy-1-methyl-1-phenyl-1,2,3,4,4a,5-hexahydrodipyrido[1,2-b:2′,1′-f][1,2,4]triazine-6,8-dione]
EC50: 1290 nM

CC1(c2ccccc2)CCCC2N(CC3CC3)C(=O)c3c(O)c(=O)ccn3N21 (single isomer, unassigned) [Compound 37A, 5-(cyclopropylmethyl)-7-hydroxy-1-methyl-1-phenyl-1,2,3,4,4a,5-hexahydrodipyrido[1,2-b:2′,1′-f][1,2,4]triazine-6,8-dione]
EC50: 11.4 nM

CC1(c2ccccc2)CCCC2N(CC3CC3)C(=O)c3c(O)c(=O)ccn3N21 (single isomer, unassigned) [Compound 37B, 5-(cyclopropylmethyl)-7-hydroxy-1-methyl-1-phenyl-1,2,3,4,4a,5-hexahydrodipyrido[1,2-b:2′,1′-f][1,2,4]triazine-6,8-dione]
EC50: 1240 nM

CC1(c2ccccc2)CCCC2N(CCC(F)(F)F)C(=O)c3c(O)c(=O)ccn3N21 (single isomer, unassigned) [Compound 38A, 7-hydroxy-1-methyl-1-phenyl-5-(3,3,3-trifluoropropyl)-1,2,3,4,4a,5-hexahydrodipyrido[1,2-b:2′,1′-f][1,2,4]triazine-6,8-dione]
EC50: > 8100 nM

CC1(c2ccccc2)CCCC2N(CCC(F)(F)F)C(=O)c3c(O)c(=O)ccn3N21 (single isomer, unassigned) [Compound 38B, 7-hydroxy-1-methyl-1-phenyl-5-(3,3,3-trifluoropropyl)-1,2,3,4,4a,5-hexahydrodipyrido[1,2-b:2′,1′-f][1,2,4]triazine-6,8-dione]
EC50: 5.8 nM

CC1(c2ccccn2)CCCC2N(CC(F)(F)F)C(=O)c3c(O)c(=O)ccn3N21 (single isomer, unassigned) [Compound 39A, 7-hydroxy-1-methyl-1-(pyridin-2-yl)-5-(2,2,2-trifluoroethyl)-1,2,3,4,4a,5-hexahydrodipyrido[1,2-b:2′,1′-f][1,2,4]triazine-6,8-dione]
EC50: > 8100 nM

CC1(c2ccccn2)CCCC2N(CC(F)(F)F)C(=O)c3c(O)c(=O)ccn3N21 (single isomer, unassigned) [Compound 39B, 7-hydroxy-1-methyl-1-(pyridin-2-yl)-5-(2,2,2-trifluoroethyl)-1,2,3,4,4a,5-hexahydrodipyrido[1,2-b:2′,1′-f][1,2,4]triazine-6,8-dione]
EC50: 10.1 nM

CC1(c2ccccc2)CCCC2N(CC3COC3)C(=O)c3c(O)c(=O)ccn3N21 (single isomer, unassigned) [Compound 40A, 7-hydroxy-1-methyl-5-(oxetan-3-ylmethyl)-1-phenyl-1,2,3,4,4a,5-hexahydrodipyrido[1,2-b:2′,1′-f][1,2,4]triazine-6,8-dione]
EC50: 14.4 nM
